Data from PubChem BioAssay (NCI).
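Assay format: 96-well plates, 48-hour exposure. Abbreviation: GI50, concentration required for 50% inhibition of growth. TGI is the concentration that stops growth completely.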

Columns and labels:
Assay in all cases: growth of human tumour cells (NCI), 48 h; in the data active = GI50 below about 0.43 µM; inactive = the rest
MDA-MB-435 = tested on: MDA-MB-435
MCF7 breast = tested on: MCF7 breast
U251 CNS = tested on: U251 CNS
A549 NSCLC = tested on: A549 NSCLC
NCI-H522 lung = tested on: NCI-H522 lung
CAKI-1 renal = tested on: CAKI-1 renal
OVCAR-4 ovarian = tested on: OVCAR-4 ovarian
HT29 colon = tested on: HT29 colon
LOX IMVI melanoma = tested on: LOX IMVI melanoma
MALME-3M melanoma = tested on: MALME-3M melanoma

CC1C(=O)c2cc3c(cc2CCN(C)Cc2c1ccc1c2OCO1)OCO3 (stereo not given)
> 75 µg/mL: TGI (MDA-MB-435) | TGI (MCF7 breast) | TGI (U251 CNS) | TGI (A549 NSCLC) | TGI (NCI-H522 lung) | TGI (CAKI-1 renal) | TGI (OVCAR-4 ovarian) | TGI (HT29 colon) | TGI (LOX IMVI melanoma) | TGI (MALME-3M melanoma)
inactive: GI50 (MDA-MB-435) 47.7 µg/mL | GI50 (MCF7 breast) 48.5 µg/mL | GI50 (U251 CNS) 67.5 µg/mL | GI50 (A549 NSCLC) > 75 µg/mL | GI50 (NCI-H522 lung) 34.6 µg/mL | GI50 (CAKI-1 renal) > 75 µg/mL | GI50 (OVCAR-4 ovarian) 44.4 µg/mL | GI50 (HT29 colon) 19.6 µg/mL | GI50 (LOX IMVI melanoma) 18.6 µg/mL | GI50 (MALME-3M melanoma) > 75 µg/mL

Clc1ccc(Nc2nc(Nc3ccccc3)nc(Nc3ccc(-c4cc(-c5ccc(Cl)cc5)on4)cc3)n2)cc1
25.5 µM: TGI (HT29 colon)
> 100 µM: TGI (MCF7 breast) | TGI (U251 CNS) | TGI (A549 NSCLC) | TGI (OVCAR-4 ovarian) | TGI (LOX IMVI melanoma)
inactive: GI50 (MDA-MB-435) 17.8 µM | GI50 (MCF7 breast) 12.2 µM | GI50 (U251 CNS) 17.7 µM | GI50 (A549 NSCLC) 19.2 µM | GI50 (NCI-H522 lung) 16.2 µM | GI50 (CAKI-1 renal) 15.3 µM | GI50 (OVCAR-4 ovarian) 15.4 µM | GI50 (HT29 colon) 10.8 µM | GI50 (LOX IMVI melanoma) 13.7 µM | GI50 (MALME-3M melanoma) 31.5 µM
93 µM: TGI (MALME-3M melanoma)
69.7 µM: TGI (MDA-MB-435)
69.2 µM: TGI (CAKI-1 renal)
36.7 µM: TGI (NCI-H522 lung)

O=C(Cc1csc2nc(-c3ccc(Cl)cc3)cn12)N/N=C/c1ccccc1O
35.4 µM: TGI (U251 CNS)
16 µM: TGI (CAKI-1 renal)
inactive: GI50 (MDA-MB-435) 6.1 µM | GI50 (MCF7 breast) 3.34 µM | GI50 (U251 CNS) 1.77 µM | GI50 (A549 NSCLC) 5.18 µM | GI50 (CAKI-1 renal) 0.782 µM | GI50 (OVCAR-4 ovarian) 1.5 µM | GI50 (LOX IMVI melanoma) 1.93 µM | GI50 (MALME-3M melanoma) 5.56 µM
94.2 µM: TGI (MALME-3M melanoma)
36.1 µM: TGI (LOX IMVI melanoma)
> 100 µM: TGI (MDA-MB-435) | TGI (MCF7 breast) | TGI (A549 NSCLC) | TGI (OVCAR-4 ovarian)

O=C1C2Cc3c(n(C(=O)c4ccccc4)c4ccccc34)CC2C(=O)N1c1ccc(Nc2ccc(N3C(=O)C4Cc5c(n(C(=O)c6ccccc6)c6ccccc56)CC4C3=O)cc2)cc1 (stereo not given)
> 100 µM: TGI (MDA-MB-435) | TGI (MCF7 breast) | TGI (U251 CNS) | TGI (A549 NSCLC) | TGI (NCI-H522 lung) | TGI (CAKI-1 renal) | TGI (OVCAR-4 ovarian) | TGI (HT29 colon) | TGI (LOX IMVI melanoma) | TGI (MALME-3M melanoma)

CC1=C[C@@H](C)C[C@]2(C)CC[C@H](O2)[C@]23CC[C@](CO)(C[C@H](O2)[C@@H]2O[C@@](C)(CC2=O)[C@@H](O)[C@H]2CC[C@@]4(CCC[C@@H](O4)[C@H](C)C(=O)O[C@H]4C[C@H]([C@]5(O)OCC[C@H](C)[C@@H]5O)O[C@H]4C=C1)O2)O3
0.196 µM: TGI (MALME-3M melanoma)
0.155 µM: TGI (LOX IMVI melanoma)
0.107 µM: TGI (CAKI-1 renal)
0.438 µM: TGI (U251 CNS)
> 10 µM: TGI (MDA-MB-435) | TGI (MCF7 breast) | TGI (A549 NSCLC) | TGI (OVCAR-4 ovarian) | TGI (HT29 colon)
> 2.1 µM: TGI (NCI-H522 lung)

COC(=O)c1cc(NC(=O)c2cc(NC(=O)Cc3c[nH]c4ccccc34)cn2C)cn1C
55.8 µM: TGI (HT29 colon)
> 100 µM: TGI (MDA-MB-435) | TGI (MCF7 breast) | TGI (A549 NSCLC) | TGI (CAKI-1 renal) | TGI (OVCAR-4 ovarian) | TGI (LOX IMVI melanoma)
77.2 µM: TGI (MALME-3M melanoma)

CN(C)C(=O)OC1=CC2CCC(C1)N2C (stereo not given)
> 100 µM: TGI (MDA-MB-435) | TGI (MCF7 breast) | TGI (U251 CNS) | TGI (A549 NSCLC) | TGI (NCI-H522 lung) | TGI (CAKI-1 renal) | TGI (OVCAR-4 ovarian) | TGI (HT29 colon) | TGI (LOX IMVI melanoma) | TGI (MALME-3M melanoma)

COc1ccc(-n2c3c(c4cc(O)ccc42)Cc2ccccc2C3=O)cc1
> 100 µM: TGI (MDA-MB-435) | TGI (U251 CNS) | TGI (A549 NSCLC) | TGI (CAKI-1 renal) | TGI (HT29 colon) | TGI (LOX IMVI melanoma) | TGI (MALME-3M melanoma)
82.1 µM: TGI (OVCAR-4 ovarian)
79.7 µM: TGI (MCF7 breast)

COc1ccc(-c2nn(-c3ccc(NC(=O)c4cc(Cl)cc(Cl)c4)cc3)cc2-c2ccncc2)cc1Cl
> 100 µM: TGI (MDA-MB-435) | TGI (MCF7 breast) | TGI (U251 CNS) | TGI (A549 NSCLC) | TGI (NCI-H522 lung) | TGI (CAKI-1 renal) | TGI (OVCAR-4 ovarian) | TGI (HT29 colon) | TGI (LOX IMVI melanoma)
inactive: GI50 (MDA-MB-435) > 100 µM | GI50 (MCF7 breast) > 100 µM | GI50 (U251 CNS) 1.84 µM | GI50 (A549 NSCLC) > 100 µM | GI50 (NCI-H522 lung) 5.11 µM | GI50 (CAKI-1 renal) 3.04 µM | GI50 (OVCAR-4 ovarian) > 100 µM | GI50 (HT29 colon) 2.26 µM | GI50 (LOX IMVI melanoma) 3.2 µM

O=C(CC(c1ccccc1)C1C(=O)NC(=S)NC1=O)c1ccc([N+](=O)[O-])cc1 (stereo not given)
37.5 µM: TGI (MCF7 breast)
59.4 µM: TGI (CAKI-1 renal)
> 100 µM: TGI (MDA-MB-435) | TGI (U251 CNS) | TGI (A549 NSCLC) | TGI (NCI-H522 lung) | TGI (OVCAR-4 ovarian) | TGI (HT29 colon) | TGI (LOX IMVI melanoma) | TGI (MALME-3M melanoma)

O=C(/C=C1\N=C(c2ccccc2)N(c2nc3c(Cl)cc(Cl)cc3s2)C1=O)/C=C/c1ccccc1
> 100 µM: TGI (MDA-MB-435) | TGI (MCF7 breast) | TGI (U251 CNS) | TGI (A549 NSCLC) | TGI (NCI-H522 lung) | TGI (CAKI-1 renal) | TGI (OVCAR-4 ovarian) | TGI (HT29 colon) | TGI (LOX IMVI melanoma) | TGI (MALME-3M melanoma)

COc1cc(C2c3cc4c(cc3[C@@H](Nc3ccc(Oc5ccccc5)cc3)C3COC(=O)[C@H]23)OCO4)cc(OC)c1O (stereo not given in full)
> 39.5 µM: TGI (A549 NSCLC)
> 27.9 µM: TGI (U251 CNS)
> 37.1 µM: TGI (MCF7 breast)
> 100 µM: TGI (OVCAR-4 ovarian) | TGI (HT29 colon) | TGI (LOX IMVI melanoma) | TGI (MALME-3M melanoma)
6.76 µM: TGI (CAKI-1 renal)
> 78.9 µM: TGI (NCI-H522 lung)

O=C(Nc1ccc(-n2ccc3c(NC(=O)c4ccccc4)nccc32)cc1)Nc1cccc(C(F)(F)F)c1
31.2 µM: TGI (MALME-3M melanoma)
inactive: GI50 (MDA-MB-435) 4.57 µM | GI50 (MCF7 breast) 6.61 µM | GI50 (U251 CNS) 2.04 µM | GI50 (A549 NSCLC) 3.25 µM | GI50 (NCI-H522 lung) 1.69 µM | GI50 (CAKI-1 renal) 10.8 µM | GI50 (OVCAR-4 ovarian) 2.65 µM | GI50 (HT29 colon) 1.85 µM | GI50 (LOX IMVI melanoma) 2.38 µM | GI50 (MALME-3M melanoma) 13.7 µM
10.5 µM: TGI (OVCAR-4 ovarian)
24.8 µM: TGI (MCF7 breast)
10.9 µM: TGI (A549 NSCLC) | TGI (LOX IMVI melanoma)
15.3 µM: TGI (NCI-H522 lung)
37.4 µM: TGI (CAKI-1 renal)
21.3 µM: TGI (MDA-MB-435)
10.8 µM: TGI (U251 CNS)
4.93 µM: TGI (HT29 colon)

O=C1/C(=C/c2[nH]ncc2-c2ccc(Cl)cc2)C(=O)N(c2ccccc2)C1c1ccccc1 (stereo not given)
32.4 µM: TGI (LOX IMVI melanoma)
35.5 µM: TGI (MDA-MB-435)
> 100 µM: TGI (MCF7 breast) | TGI (A549 NSCLC)
27.2 µM: TGI (NCI-H522 lung)
31.1 µM: TGI (CAKI-1 renal)
50.2 µM: TGI (U251 CNS)
27.5 µM: TGI (HT29 colon)
62.5 µM: TGI (MALME-3M melanoma)
96.5 µM: TGI (OVCAR-4 ovarian)
